Values after ≈ are worked out from the molar mass of the structure shown. Read-outs that look alike come from different tables or passages of the source. Positions of bridges follow the written chain, without caps; N, C: chain ends. Non-standard residues stand in square brackets, D forms with d. Residues, ends and D or L forms follow the SMILES beside them. *: point of attachment. Ileψ(thiazoline)Cys = CC[C@H](C)[C@H](N)C1=N[C@H](C(=O)*)CS1; dOrn = NCCC[C@@H](N)C(=O)O
Tested on: Enterococcus faecalis ATCC 51299 strain
Test: MIC levels of antibiotics against Vancomycin-resistant bacteria
Format: cell-based
Excerpt: Enterococcus faecalis ATCC 51299 strain was used as Vancomycin-resistant bacteria.

[1] = Enterococcus faecalis, ATCC51299, 16 h; read-out: MIC levels after 16 hours of culture
[2] = Enterococcus faecalis, ATCC51299, 24 h; read-out: MIC levels after 24 hours of culture

Compound	MIC [1] [µg/mL]	MIC [2] [µg/mL]	also measured
CC1(C)S[C@@H]2[C@H](NC(=O)[C@H](N)c3ccccc3)C(=O)N2[C@H]1C(=O)O [Ampicillin]	0.5 (≈ 1.43 µM)	0.5 (≈ 1.43 µM)	–
CC[C@H](C)[C@H](N)C1=N[C@H](C(=O)N[C@@H](CC(C)C)C(=O)N[C@H](CCC(=O)O)C(=O)N[C@H](C(=O)N[C@H]2CCCCNC(=O)[C@H](CC(N)=O)NC(=O)[C@@H](CC(=O)O)NC(=O)[C@H](Cc3cnc[nH]3)NC(=O)[C@@H](Cc3ccccc3)NC(=O)[C@H]([C@@H](C)CC)NC(=O)[C@@H](CCCN)NC2=O)[C@@H](C)CC)CS1 [Bacitracin] ({Ileψ(thiazoline)Cys}-L[dE]IK[dOrn]I[dF]H[dD]N; lactam 4-C)	64 (≈ 45 µM)	128 (≈ 90 µM)	–
O=C(N[C@H](CO)[C@H](O)c1ccc([N+](=O)[O-])cc1)C(Cl)Cl [Chloramphenicol]	64 (≈ 198 µM)	128 (≈ 396 µM)	–
CC[C@H]1OC(=O)[C@H](C)[C@@H](O[C@H]2C[C@@](C)(OC)[C@@H](O)[C@H](C)O2)[C@H](C)[C@@H](O[C@@H]2O[C@H](C)C[C@H](N(C)C)[C@H]2O)[C@](C)(O)C[C@@H](C)C(=O)[C@H](C)[C@@H](O)[C@]1(C)O [Erythromycin]	512 (≈ 698 µM)	> 512	–
Cc1onc(-c2ccccc2)c1C(=O)N[C@@H]1C(=O)N2[C@@H]1SC(C)(C)[C@@H]2C(=O)O [Oxacillin]	32 (≈ 79.7 µM)	64 (≈ 159 µM)	–
[H]/N=C(/N)N[C@H]1[C@H](O)[C@@H](O)[C@H](O[C@@H]2O[C@@H](C)[C@](O)(C=O)[C@H]2O[C@@H]2O[C@@H](CO)[C@H](O)[C@@H](O)[C@@H]2NC)[C@@H](N/C(N)=N\[H])[C@@H]1O [Streptomycin]	> 512	> 512	–
CN(C)[C@@H]1C(O)=C(C(N)=O)C(=O)[C@@]2(O)C(O)=C3C(=O)c4c(O)cccc4[C@@](C)(O)[C@H]3C[C@@H]12 [Tetracycline]	0.5 (≈ 1.13 µM)	1 (≈ 2.25 µM)	–
CN[C@H](CC(C)C)C(=O)N[C@H]1C(=O)N[C@@H](CC(N)=O)C(=O)N[C@H]2C(=O)N[C@H]3C(=O)N[C@H](C(=O)N[C@H](C(=O)O)c4cc(O)cc(O)c4-c4cc3ccc4O)[C@H](O)c3ccc(c(Cl)c3)Oc3cc2cc(c3O[C@@H]2O[C@H](CO)[C@@H](O)[C@H](O)[C@H]2O[C@H]2C[C@](C)(N)[C@H](O)[C@H](C)O2)Oc2ccc(cc2Cl)[C@H]1O [Vancomycin]	–	–	MIC (Enterococcus faecalis, ATCC51299, 16 h, read-out: MIC levels after 16 hours of culture): 16 µg/mL (≈ 11 µM); MIC (Enterococcus faecalis, ATCC51299, 24 h, read-out: MIC levels after 24 hours of culture): 64 µg/mL (≈ 44.2 µM)
Gentamicin	–	–	MIC levels after 16 hours of culture (16 hours of culture): >512 µg/mL; MIC levels after 24 hours of culture (24 hours of culture): >512 µg/mL
Teicoplanin	–	–	MIC levels after 16 hours of culture (16 hours of culture): 1 µg/mL; MIC levels after 24 hours of culture (24 hours of culture): 1 µg/mL

From patent publication US20060067923A1, “Preventing agent against drug-resistant bacterial infection” (priority 2004, published 2006)
